# Measurements: patent US20060154970A1, “Alanines compounds, method of preparing them and their use” (priority 2003, published 2006)
# Key:
# 3T3-L1 preadipocytes = assay: Insulin-sensitizing activity in 3T3-L1 preadipocyte model, triglyceride accumulation in cells as indication of differentiation; format: cell-based; conditions: for activation at 0.01 µM / activation at 0.1 µM / activation at 1 µM: Mus musculus, 3T3-L1, read-out: The Percentage of Triglyceride Increased in 3T3-L1 Cells; for activation at 0.01 µM / activation at 0.1 µM / activation at 1 µM / The Percentage of Triglyceride Increased in 3T3-L1 Cells: average data in 3 pores (Rosiglitazone: n = 22, mean ± SE); for insulin-sensitizing activity (in words): summary of table 2
# Method: Insulin-sensitizing agents can promote the differentiation of preadipocytes toward adipocytes, thus insulin-sensitizing agents could be identified according to the differentiation of pre-adipocytes. Following the methods reported in the literature [Kletzin B F. Mol. Pharm. 1991, 41, 393], the insulin-sensitizing activities of the compounds of formula (I) of the present invention were evaluated in 3T3-L1 pradipocyte model with triglyceride accumulation in cells as the indication of differentiation.
# The 3T3-L1 preadipocytes were incubated in DMEM (Dulbecco's Modified Eagle's Medium) containing 10% NBS (newborn calf serum) and subcultured every 3 days. The calls were transferred to 24-pore plates, and after the pores were filled completely the cells were treated with IBMX (isobutylmethylxanthine) (0.5 mmol/L), DEX (dexamethasone) (1 μmol/L) and insulin (1.0 μmol/L) for 48 h. Different amounts of test compounds were incubated with the cells until the end of the experiment. Cells were collected and the contents of triglyceride and protein therein were determined by colorimetry. Enhancements of triglyceride in cells after drug-administrating were calculated.
# The positive control group was rosiglitazone, and the solvent control group was a culturing medium containing 0.1% of DMSO. The enhancement of triglyceride in cells was determined in three different concentrations (0.01, 0.1, 1 μmol/L) of the tested compounds.
Compound,melting point,activation at 0.01 µM (3T3-L1 preadipocytes; concentration 0.01 μmol/L) [%],activation at 0.1 µM (3T3-L1 preadipocytes; concentration 0.1 μmol/L) [%],activation at 1 µM (3T3-L1 preadipocytes; concentration 1 μmol/L) [%],The Percentage of Triglyceride Increased in 3T3-L1 Cells (3T3-L1 preadipocytes; concentration 0.01 μmol/L) [%],The Percentage of Triglyceride Increased in 3T3-L1 Cells (3T3-L1 preadipocytes; concentration 0.1 μmol/L) [%],The Percentage of Triglyceride Increased in 3T3-L1 Cells (3T3-L1 preadipocytes; concentration 1 μmol/L) [%],insulin-sensitizing activity (in words) (3T3-L1 preadipocytes)
"CC(C)[C@H]1CC[C@H](C(=O)N[C@@H](Cc2ccc(OCCN(C)c3nc4ccccc4o3)cc2)C(=O)O)CC1 [Compound 3, (2S)-2-[N-(trans-4-isopropylcyclohexylcarbonyl)amino]-3-[4-[2-[N-methyl-N-(2-benzoxazolyl)amino]ethoxy]phenyl]propionic acid]",179 to 180 °C (dec.),-0.37,6.7,20,–,–,–,–
"CCCCOc1ccc(C[C@@H](NC(=O)[C@H]2CC[C@H](C(C)C)CC2)C(=O)O)cc1 [Compound 12, (2R)-2-[N-(trans-4-isopropylcyclohexylcarbonyl)amino]-3-(4-butoxyphenyl)propionic acid]",120 to 121 °C,–,–,–,–,–,–,–
"CC(C)[C@H]1CC[C@H](C(=O)N[C@@H](Cc2ccc(OCCn3ccc4ccccc43)cc2)C(=O)O)CC1 [Compound 5, (2S)-2-[N-(trans-4-isopropylcyclohexylcarbonyl)amino]-3-[4-[2-(1-indolyl)ethoxy]phenyl]propionic acid]",–,-1.54,-4.64,-6.92,–,–,–,–
"CCCCOc1ccc(C[C@H](NC(=O)[C@H]2CC[C@H](C(C)C)CC2)C(=O)O)cc1 [Compound 11, (2S)-2-[N-(trans-4-isopropylcyclohexylcarbonyl)amino]-3-(4-butoxyphenyl)propionic acid]",–,0,0.36,2.23,–,–,–,–
"CC(C)[C@H]1CC[C@H](C(=O)N[C@H](Cc2ccc(OCCN(C)c3nc4ccccc4o3)cc2)C(=O)O)CC1 [Compound 4, (2R)-2-[N-(trans-4-isopropylcyclohexylcarbonyl)amino]-3-[4-[2-[N-methyl-N-(2-benzoxazolyl)amino]ethoxy]phenyl]propionic acid]",179 to 180 °C,-4.77,5.05,11,–,–,–,–
"Cc1oc(-c2ccccc2)nc1CCOc1ccc(C[C@H](NC(=O)[C@H]2CC[C@H](C(C)C)CC2)C(=O)O)cc1 (relative stereo) [Compound 1, (2S)-2-[N-(trans-4-isopropylcyclohexylcarbonyl)amino]-3-[4-[2-(5-methyl-2-phenyl-4-oxazole)ethoxy]phenyl]propionic acid]",–,–,–,–,1.56,21.18,47.09,stronger insulin-sensitizing activity
"Cc1oc(-c2ccccc2)nc1CCOc1ccc(C[C@@H](NC(=O)[C@H]2CC[C@H](C(C)C)CC2)C(=O)O)cc1 [Compound 2, (2R)-2-[N-(trans-4-isopropylcyclohexylcarbonyl)amino]-3-[4-[2-(5-methyl-2-phenyl-4-oxazolyl)ethoxy]phenyl]propionic acid]",151 to 153 °C (dec.),10.7,16.5,30.7,–,–,–,stronger insulin-sensitizing activity

# Further lines, with some results ahead:
melting point,Compound,activation at 0.01 µM (3T3-L1 preadipocytes; concentration 0.01 μmol/L) [%],activation at 0.1 µM (3T3-L1 preadipocytes; concentration 0.1 μmol/L) [%],activation at 1 µM (3T3-L1 preadipocytes; concentration 1 μmol/L) [%],The Percentage of Triglyceride Increased in 3T3-L1 Cells (3T3-L1 preadipocytes; concentration 0.01 μmol/L) [%],The Percentage of Triglyceride Increased in 3T3-L1 Cells (3T3-L1 preadipocytes; concentration 0.1 μmol/L) [%],The Percentage of Triglyceride Increased in 3T3-L1 Cells (3T3-L1 preadipocytes; concentration 1 μmol/L) [%],insulin-sensitizing activity (in words) (3T3-L1 preadipocytes)
168 to 170 °C,"CCOc1ccc(C[C@@H](NC(=O)[C@H]2CC[C@H](C(C)C)CC2)C(=O)O)cc1 [Compound 14, (2R)-2-[N-(trans-4-isopropylcyclohexylcarbonyl)amino]-3-(4-ethoxyphenyl)propionic acid]",–,–,–,–,–,–,–
149 to 151 °C,"COc1ccc(C[C@H](NC(=O)[C@H]2CC[C@H](C(C)C)CC2)C(=O)O)cc1 [Compound 15, (2S)-2-[N-(trans-4-isopropylcyclohexylcarbonyl)amino]-3-(4-methoxyphenyl)propionic acid]",-0.21,5.99,5.04,–,–,–,–
168 to 170 °C,"CCOc1ccc(C[C@H](NC(=O)[C@H]2CC[C@H](C(C)C)CC2)C(=O)O)cc1 [Compound 13, (2S)-2-[N-(trans-4-isopropylcyclohexylcarbonyl)amino]-3-(4-ethoxyphenyl)propionic acid]",1.89,1.83,-4.74,–,–,–,–
156 to 157 °C,"CC(C)[C@H]1CC[C@H](C(=O)N[C@H](Cc2ccc(O)cc2)C(=O)O)CC1 [Compound 18, (2R)-2-[N-(trans-4-isopropylcyclohexylcarbonyl)amino]-3-(4-hydroxyphenyl)propionic acid]",–,–,–,–,–,–,–
171 to 172 °C,"CC(C)[C@H]1CC[C@H](C(=O)N[C@H](Cc2ccc(OCc3ccc(C(F)(F)F)cc3)cc2)C(=O)O)CC1 [Compound 8, (2R)-2-[N-(trans-4-isopropylcyclohexylcarbonyl)amino]-3-[4-(4-trifluoromethylbenzyloxy)phenyl]propionic acid]",–,–,–,–,–,–,–
171 to 172 °C,"CC(C)[C@H]1CC[C@H](C(=O)N[C@@H](Cc2ccc(OCc3ccc(C(F)(F)F)cc3)cc2)C(=O)O)CC1 [Compound 7, (2S)-2-[N-(trans-4-isopropylcyclohexylcarbonyl)amino]-3-[4-(4-trifluoromethylbenzyloxy)phenyl]propionic acid]",11.8,5.8,4.68,–,–,–,–
140 to 142 °C (dec.),"CC(C)[C@H]1CC[C@H](C(=O)N[C@H](Cc2ccc(OCc3ccccc3)cc2)C(=O)O)CC1 [Compound 10, (2R)-2-[N-(trans-4-isopropylcyclohexylcarbonyl)amino]-3-(4-benzyloxyphenyl)propionic acid]",–,–,–,–,–,–,–
140 to 142 °C (dec.),"CC(C)[C@H]1CC[C@H](C(=O)N[C@@H](Cc2ccc(OCc3ccccc3)cc2)C(=O)O)CC1 [Compound 9, (2S)-2-[N-(trans-4-isopropylcyclohexylcarbonyl)amino]-3-(4-benzyloxyphenyl)propionic acid]",6,3.35,-0.69,–,–,–,–
156 to 157 °C,"CC(C)[C@H]1CC[C@H](C(=O)N[C@@H](Cc2ccc(O)cc2)C(=O)O)CC1 [Compound 17, (2S)-2-[N-(trans-4-isopropylcyclohexylcarbonyl)amino]-3-(4-hydroxyphenyl)propionic acid]",0.22,10.8,0.85,–,–,–,–
158 to 160 °C,"CC(C)[C@H]1CC[C@H](C(=O)N[C@@H](Cc2ccc(OCCN(C)c3ccccn3)cc2)C(=O)O)CC1 [Compound 19, (2S)-2-[N-(trans-4-isopropylcyclohexylcarbonyl)amino]-3-[4-[2-[N-methyl-N-(2-pyridyl)amino]ethoxyl]phenyl]propionic acid]",-1.46,-2.24,-1.62,–,–,–,–
